# Measured values from US20240041830A1, “CIRCULATING BIOMARKERS OF RESPONSE TO PD-1/PD-L1 BLOCKADE AND GSK-3 INHIBITION” (Brown University, priority 2022, published 2024).
# How the values were obtained:
# HCT-116 = experiment: Western blot analysis; type: cell-based, human; settings: 100 ng/mL and 250 ng/mL IFN-γ
# Method: (§1) Pyroptosis assay. Recombinant Human TNF-α (Cat #300-01A, PeproTech, Rocky Hill, NJ, USA) and Recombinant Human IFN-γ (Cat #300-02, PeproTech, Rocky Hill, NJ, USA) were purchased for use in western blot analysis while rhTRAIL was generated in-house. See Kim et al., J. Biol. Chem., 279, 40044-40052 (2004).
# (§2) Western blot analysis. Cells were plated in a 6-well plate and incubated overnight before the spent media was replaced with drugged media. Drug treatment lasted for indicated durations. Protein was extracted using radioimmunoprecipitation (RIPA) assay buffer (Cat #R0278, Sigma-Aldrich, St. Louis, MO, USA) containing cOmplete™, Mini, EDTA-free Protease Inhibitor Cocktail (Cat #4693159001, Roche, Basel, Switzerland) from sub-confluent cells. Denaturing sample buffer was added, samples were boiled at 95° C. for ten minutes, and an equal amount of protein lysate was electrophoresed through NuPAGE™ 4 to 12%, bis-Tris, 1.5 mm, Mini Protein Gels (Invitrogen, Waltham, MA, USA) then transferred to PVDF membranes. The PVDF membrane was blocked with 5% non-fat milk (Sigma-Aldrich, St. Louis, MO, USA) in 1× TTBS. Primary antibodies were incubated with the transferred PVDF membrane in blocking buffer at 4° C. overnight. Secondary antibodies included Goat anti-Rabbit IgG (H+L) Secondary Antibody, HRP (Cat #31460, Invitrogen, Waltham, MA, USA), and Goat anti-Mouse IgG (H+L) Secondary Antibody, HRP (Cat #31430, Invitrogen, Waltham, MA, USA). The signal was detected using Pierce™ ECL Western Blotting Substrate (Cat #32106, Thermo Scientific, Waltham, MA, USA) and a Syngene Imaging System (RRID: SCR_015770).
# (§3) Elraglusib uprequlates tumor cell PD-L1 and proapoptotic pathway expression as well as downregulates immunosuppressive/angiogenic protein expression and pro-survival pathways. The inventors performed Western blot analyses on colorectal cancer cells (HCT-116, HT-29) treated with elraglusib over a 72-hour time course. […] The inventors observed increases in PD-L1 expression as the treatment duration increased. To further elucidate the elraglusib-mediated effects on tumor cell survival, the inventors probed for survival factors Bcl-2 and Survivin and noted decreases in protein expression in both cell lines, especially at the later timepoints (forty-eight hours, seventy-two hours). […] HCT116 cells are heterozygous for β-catenin, harboring one wild-type allele and one mutant allele with inactivation of one of the residues phosphorylated by GSK-3β that is frequently mutated in tumors. Kaler, Augenlicht, & Klampfer, PLoS ONE, 7, e45462 (2012). HT-29, KM12C, and SW480 cells harbor APC mutations. Rowan et al., Proc. Natl. Acad. Sci. USA, 97, 3352 (2000).
# HT-29 = experiment: Western blot analysis; type: cell-based, human; settings: 100 ng/mL and 250 ng/mL IFN-γ
# Method: as §1, §2, §3
substance,measurement,setting,value
IFN-γ: Recombinant Human IFN-γ (PeproTech) used in western blot analysis,gasdermin B expression,HCT-116,increase
same,gasdermin B expression,HT-29,increase
